The numbers were not newly measured in PMC3991022, “Comparison of Functional Protein Transduction Domains Using the NEMO Binding Domain Peptide” (Pharmaceuticals, 2010), which cites them from elsewhere.

The data set concerns mouse model of collagen induced arthritis. Details: method as in PMID 15156202. The note with it: injection of NBD peptide.

On to TALDWSWLQTE [NBD peptide], for which the amelioration of arthritis result is “significantly ameliorated the arthritis”.
